# Laboratory results: paper PMC7993833, “EDP-938, a novel nucleoprotein inhibitor of respiratory syncytial virus, demonstrates potent antiviral activities in vitro and in a non-human primate model” (PLoS Pathogens, 2021)
# How the values were obtained:
# HEp-2 cells = experiment: Cytotoxicity (ATPlite) in HEp-2 cells; assay type: cell-based, human; details: at up to 50 μM, 3 days
# Description: (§1) HEp-2, A549, and CHO cells were seeded at 3,000 cpw in their respective growth medium. CHO growth medium used was RPMI medium 1640 with 10% FBS, 1% P/S, 1% GlutaMAX. HEK-293 cells seeded at 10,000 cpw in DMEM growth medium. Undifferentiated HBECs were seeded in collagen-coated 96-well plates at 7,500 cpw in appropriate growth medium. Compound added and incubated for 3 days (4 days for HBECs) as described above. Plates read with ATPlite and CC50 calculated as EC50s as described above. SI = CC50/EC50 within a cell line.
# HBEC = experiment: Cytotoxicity (ATPlite) in primary HBECs; assay type: cell-based, human
# Description: as §1
# [1] = Cytotoxicity (ATPlite) in CHO cells; assay type: cell-based; details: Chinese hamster, read-out: half-maximal cytotoxic concentration (CC50)
# Description: as §1
# RSV-A clinical isolates = experiment: Susceptibility of USA-derived RSV-A clinical isolates; assay type: cell-based; details: human respiratory syncytial virus
# Description: Serial dilutions of the compound were added to cells infected with RSV-A isolates at an MOI of 0.1 (except for isolate 629-9-2 at an MOI of 0.01) or RSV-B isolates at an MOI of 0.5 (expect for isolate 629-24/2007 at an MOI of 0.0044) and were treated for 5 or 6 days, respectively. […] This is consistent with the fact that the viral N protein, which is the putative target of the antiviral effect of EDP-938, is the most conserved RSV protein [11].
# HEp-2, Vero, and BHK were seeded at 8,000 cells per well (cpw) in growth medium (Dulbecco’s Modified Eagle Medium (DMEM) with 1% GlutaMAX, 1% Penicillin/Streptomycin (P/S), 1% Non-Essential Amino Acids (NEAA), 10% Fetal Bovine Serum (FBS)) or (Minimum Essential Medium (MEM) with 10% FBS, 1% NEAA, 1% P/S) or (Eagle’s Minimum Essential Medium with L-Glutamine, with 10% FBS, 1% P/S) respectively. A549 seeded at 3,000 cpw in F-12K Kaighn’s Modification nutrient mixture with 10% FBS, 1% NEAA, 1% P/S. Cells seeded at time of infection in 96-well plates, final well volume 100μL. Compounds suspended in DMSO, serially diluted and added to wells at 0.5% final DMSO concentration. […] Cytopathic effect (CPE) determined using ATPlite (Perkin Elmer) measured with Envision luminometer. […] All EC50s were calculated using the XLFit four-parameter logistic model 200 in Microsoft Excel. […]
# [2] = Plasma drug exposure in African Green monkey study; assay type: in vivo, African Green monkeys (Chlorocebus); details: both sexes, plasma, 100 mg/kg BID oral, read-out: mean plasma Ctrough
# Text: The African green monkey model was selected for EDP-938 in vivo studies for its higher level of viral replication versus cotton rats and BALB/c mice. […] In this previous trial, patients who achieved RSV-604 levels in excess of the EC90 experienced a 2.31 log reduction in viral load. […] The lack of antiviral activity observed with RSV-604 could be a function of relatively poor potency compared to EDP-938 (Fig 1) and/or insufficient tissue exposure. While in this study the animals were not sacrificed and thus the drug level in the lung could not be determined, plasma samples were taken at 12h after the last dose (Ctrough) to confirm drug exposure. […] It is reasonable to project that given the same dose or exposure EDP-938 should perform better than RSV-604 in RSV infected patients as well.
# A study of EDP-938 and RSV-604 in the African Green monkey (AGM) animal model was performed by BIOQUAL, Inc (Rockville, Maryland). Methods were similar to those run in a study by Ispas et al.. Six (6) male and 6 female AGMs (Chlorocebus) of 4–5 kg were purchased from PrimGen (Hines, Illinois). Each animal was challenged with 2 x 10^5 PFU of RSV A2 viral inoculum (Virapur, San Diego, CA). Four animals (2 per sex) in each group were treated with EDP-938, RSV-604, or vehicle control (0.5% w/v methylcellulose). […]
# [3] = test system: RSV mRNA transcription and genome replication; experiment: RSV minigenome system; assay type: cell-based, respiratory syncytial virus
structure (smiles),measurement,setting,value
O=C1Nc2ccccc2C(c2ccccc2)=N[C@@H]1Nc1nnc(-c2ncc(C(F)(F)F)cc2N2CCOCC2)o1 [EDP-938],cytotoxicity,HEp-2 cells,no significant cytotoxicity
same,selectivity index,"HBEC; HBEC cells, SI = CC50/EC50 within a cell line","> 2,380"
same,cytotoxicity,"HBEC; HBEC, at up to 50 μM, 4 days",no significant cytotoxicity
same,CC50 at 3 days,[1],~27 µM
same,EC50,RSV-A clinical isolates,0.076 µM
same,concentration at 12 h after the last dose,[2],1480 nM
same,effect on mRNA transcription or genome replication,[3],had no effect
